According to patent US11685714B2, “Prodrugs of cytotoxic active agents having enzymatically cleavable groups” (BAYER PHARMA AKTIENGESELLSCHAFT, priority 2016, dated 2023):
pIC50: −log10 of the molar value.

Tests used:
[1] = test system: SK-HEP-1: human liver cell cancer line; experiment: MTT assay on SK-HEP-1; format: cell-based; settings: SK-HEP1, 96 h, growth inhibition, 96 h incubation
Description: The analysis of the cytotoxic effects of the ADCs was carried out with various cell lines:
The cells were cultivated by the standard method as stated by the American Tissue Culture Collection (ATCC) or the Leibniz-lnstitut DSMZ-Deutsche Sammlung von Mikroorganismen und Zellkulturen GmbH (DSMZ) for the cell lines in question.
The cells were then incubated in an incubator at 37° C. and 5% carbon dioxide. […] To this end, the MTT reagent was incubated with the cells for 4 h, followed by lysis of the cells overnight by addition of the detergent. […] The measured data were used to calculate the ICo50 of the growth inhibition using the DRC (dose response curve). The proliferation of cells which were not treated with test substance but were otherwise identically treated was defined as the 100% figure.

[2] = biological target: T1, motor domain of the human kinesin spindle protein KSP/Eg5 (Homo sapiens, UniProt P52732); experiment: Inhibition of the kinesin spindle protein KSP/Eg5 (ATPase activity, malachite green); format: biochemical; settings: 10 nM KSP/Eg5, microtubuli, 500 μM ATP, 2 h at RT
T1 construct: The motor domain of the human kinesin spindle protein KSP/Eg5; purchased tebu-bio/Cytoskeleton Inc 027EG01-XL
T1 sequence (P52732 18-359 limits assumed): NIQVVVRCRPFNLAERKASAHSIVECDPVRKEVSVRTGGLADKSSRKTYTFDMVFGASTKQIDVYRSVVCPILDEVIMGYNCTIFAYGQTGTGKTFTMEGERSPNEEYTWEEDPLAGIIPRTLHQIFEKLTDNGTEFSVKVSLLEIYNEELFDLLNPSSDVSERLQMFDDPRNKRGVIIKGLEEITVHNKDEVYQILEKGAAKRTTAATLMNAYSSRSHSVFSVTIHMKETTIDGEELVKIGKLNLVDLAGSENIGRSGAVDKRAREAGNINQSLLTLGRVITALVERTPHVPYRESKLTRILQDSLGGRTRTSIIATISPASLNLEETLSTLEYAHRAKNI
Description: The motor domain of the human kinesin spindle protein KSP/Eg5 (tebu-bio/Cytoskeleton Inc, No. 027EG01-XL) was incubated in a concentration of 10 nM with microtubuli (bovine or porcine, tebu-bio/Cytoskeleton Inc) stabilized with 50 μg/ml taxol (Sigma No. T7191-5MG) for 5 min at RT in 15 mM PIPES, pH 6.8 (5 mM MgCl2 and 10 mM DTT, Sigma). […] Incubation was at RT for 2 h. ATPase activity was detected by detecting the inorganic phosphate formed using malachite green (Biomol). […] The positive controls used were monastrol (Sigma, M8515-1 mg) and ispinesib (AdooQ Bioscience A10486). The individual data of the dose-activity curve are eight-fold determinations. The IC50 values are means of two independent experiments.

[3] = biological target: T2, recombinant human legumain (Homo sapiens, UniProt Q99538); experiment: Legumain assay (cleavage of legumain-cleavable prodrugs); format: biochemical; settings: within 24 h; rh legumain, pH 5.0
T2 construct: purchased R&D Systems 2199-CY
T2 sequence (Q99538 26-323 limits assumed): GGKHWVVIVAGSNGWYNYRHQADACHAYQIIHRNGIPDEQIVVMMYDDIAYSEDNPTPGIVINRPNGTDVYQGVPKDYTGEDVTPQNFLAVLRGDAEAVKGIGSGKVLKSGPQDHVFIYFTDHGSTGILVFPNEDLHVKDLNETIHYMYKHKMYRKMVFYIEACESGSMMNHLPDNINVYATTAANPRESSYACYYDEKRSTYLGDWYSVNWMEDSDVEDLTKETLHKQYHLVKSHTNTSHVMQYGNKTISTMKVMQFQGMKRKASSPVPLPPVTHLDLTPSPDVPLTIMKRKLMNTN
Description: The legumain assay was conducted with recombinant human enzyme. The rh legumain enzyme solution (catalogue #2199-CY, R&D Systems) was diluted to the desired concentration in 50 mM Na acetate buffer/100 mM NaCl, pH4.0 and preincubated at 37° C. for 2 h. rh legumain was then adjusted to a final concentration of 1 ng/μl in 50 mM MES buffer, 250 mM NaCl, pH 5.0. For every legumain-cleavable prodrug to be examined, a mixture was made up in a micro reaction vessel (0.5 ml, from Eppendorf). For this purpose, the substrate solution was adjusted to the desired concentration (double concentration) with 50 mM MES buffer, 250 mM NaCl, pH 5.0. For the kinetic measurement of the enzymatic reaction, 250 μl of the legumain solution were first initially charged and the enzyme reaction was started by adding 250 μl of the substrate solution (final concentration: single concentration). At different times, 50 μl samples were taken. This sample was admixed immediately with 100 μl of ice-cold methanol in order to stop the enzymatic reaction and then frozen at −20° C. The times selected for sampling were after 0.5 h, 1 h, 3 h and 24 h. The samples were then analysed by means of RP-HPLC analysis and by LC-MS analysis. The determination of the toxophor released enabled the determination of the half-life t½ of the enzymatic reaction (FIG. 1). […]

## CNC(=O)[C@H](CCN(C(=O)CO)[C@@H](c1cc(-c2cc(F)ccc2F)cn1Cc1ccccc1)C(C)(C)C)NC(=O)[C@H](CC(N)=O)NC(=O)[C@@H](C)NC(=O)[C@H](C)NC(=O)Cc1ccncc1 [Example R3r-LDL, N-(Pyridin-4-ylacetyl)-L-alanyl-D-alanyl-N^1-[(2S)-4-[{(1R)-1-[1-benzyl-4-(2,5-difluorophenyl)-1H-pyrrol-2-yl]-2,2-dimethylpropyl}(glycoloyl)amino]-1-(methylamino)-1-oxobutan-2-yl]-L-aspartamide]
[1]
  IC50: 283 nM
[2]
  pIC50: 6.58
[3]
  extent of cleavage to the target compound by legumain: about 20%
